Measurements taken from patent US20060257340A1, “Formulation for skin-lightening agents” (priority 2003, published 2006).
Entries after “also recorded” stand apart in the source; their conditions may differ. Marks after values point to notes of the source that are not given here.

Tests used:
[1] = test system: skin pigmentation of Yucatan swine; test: Depigmenting effect of topical application on dark-skinned Yucatan swine (pigment grade); type: in vivo; conditions: for Mean pigment Grade +/− SD (Week 12): topical 20 μl twice daily, five days per week; for Mean pigment Grade +/− SD (Week 12) / mean pigment grade +/− SD: scale 0 to 4, 4 = normal skin color; for mean pigment grade +/− SD: collated experiments; for effect of HG/PG/DMI/EtOH vehicle on depigmenting action: HG/PG/DMI/EtOH with or without 2% (wt/wt) IPM, compared with PG/EtOH
Procedure: The following nonlimiting examples further illustrate certain preferred embodiments of the present invention. The formulations were tested experimentally on Yucatan swine with dark skin. The Yucatan pigskin shares many physiologic and morphologic characteristics with human skin. For example, as described in U.S. Pat. No. 5,470,567, the thickness and general morphology of epidermis and dermis, tritiated thymidine labeling pattern and index of epidermal cells, epidermal cell turnover time, as well as size, orientation, and distribution of vessels in skin are similar to that in humans. Varying concentrations of 4-cyclopentylresorcinol and 4-cyclohexylresorcinol were administered to the back of Yucatan swine using various carriers. Yucatan swine with dark skin were used in this study. Swine were obtained from Charles River Laboratories, Windham, Me., and Sinclair Laboratories, MO. Seven sites measuring approximately 3 cm×3 cm were marked on each side of the animal's spine, between the shoulder blade and hipbone. The sites were far enough apart so that there was no cross-over. Multiple treatments were performed on the back of each animal. Each animal in the experiment received the same treatments. Each spot was topically treated with 20 μl of test solution applied twice daily, five days per week. This amounts to the same dose of active agent. Solutions were administered by pipetting the exact volume to the designated area with a micropipette and then spreading the solution. Each spot or test site on the animal's skin was graded 3 times a week on a scale of 0 to 4 for pigment change, erythema and scaling. Treatments were continued until pigmentation was reduced to a grade 1 level (marked uniform decrease in pigmentation) or for up to 12 weeks. Results were analyzed using different types of statistical analysis, ANOVA, Kruskal-Wallis test and Dunnett's multiple comparison, as indicated below. ANOVA is a statistical test that assumes sampled data is from populations that follow a Gaussian bell-shaped distribution and which works well, especially with large numbers, even if the distribution is only approximately Gaussian. The Kruskal-Wallis test is a nonparametric test that compares three or more unpaired groups. The Dunnett's test is a procedure for comparing each experimental mean with the control mean. For each graph presented, it is indicated which statistical tests were performed.

[2] = test system: Yucatan swine skin; conditions: in vivo
Procedure: Seven sites measuring approximately 3 cm×3 cm were marked on each side of the animal's spine, between the shoulder blade and hipbone. The sites were far enough apart so that there was no cross-over. Multiple treatments were performed on the back of each animal. Each animal in the experiment received the same treatments. Each spot was topically treated with 20 μl of test solution applied twice daily, five days per week. This amounts to the same dose of active agent. Solutions were administered by pipetting the exact volume to the designated area with a micropipette and then spreading the solution. Each spot or test site on the animal's skin was graded 3 times a week on a scale of 0 to 4 for pigment change, erythema and scaling. Treatments were continued until pigmentation was reduced to a grade 1 level (marked uniform decrease in pigmentation) or for up to 12 weeks.

[3] = test system: skin pigmentation of Yucatan swine; test: Reversibility of depigmentation (repigmentation) after treatment discontinuation; type: in vivo; conditions: 6 weeks after discontinuation following 12 weeks of topical treatment; 1% 4-cyclopentylresorcinol, 2% 4-cyclohexylresorcinol in HG/DMI/PG/EtOH (5/15/40/40)
Procedure: Each spot was topically treated with 20 μl of test solution applied twice daily, five days per week. This amounts to the same dose of active agent. Solutions were administered by pipetting the exact volume to the designated area with a micropipette and then spreading the solution. Each spot or test site on the animal's skin was graded 3 times a week on a scale of 0 to 4 for pigment change, erythema and scaling. Treatments were continued until pigmentation was reduced to a grade 1 level (marked uniform decrease in pigmentation) or for up to 12 weeks. Pigmentation was monitored for 6 weeks after discontinuation of treatment following 12 weeks of topical treatment with 1% 4-cyclopentylresorcinol and 2% 4-cyclohexylresorcinol in HG/DMI/PG/EtOH (5/15/40/40).

[4] = 2% in HG/PG/DMI/EtOH (5/40/15/40)

Compound	Mean pigment Grade +/− SD (Week 12) ([1]; 2% in DMI/HG/PG/EtOH, 0 = complete depigmentation)	mean pigment grade +/− SD [1, 4]	mean pigment grade +/− SD ([1]; 2% in HG/PG/DMI/EtOH + 2% IPM)	mean pigment grade +/− SD ([1]; 2% in PG/EtOH (3/7))	mean pigment grade +/− SD ([1]; 5% in PG/EtOH (5/5))	effect of HG/PG/DMI/EtOH vehicle on depigmenting action [1]	irritation [2]	repigmentation after discontinuation of treatment [3]	pigmentation versus the same agent in PG/EtOH vehicle ([1]; 1% and 2% in HG/PG/DMI/EtOH compared with PG/EtOH)	pigmentation versus vehicle control ([1]; 1% and 2% in HG/PG/DMI/EtOH, Kruskal-Wallis test and Dunnett's multiple comparison)	Mean pigment Grade +/− SD (Week 12) ([1]; 1% in DMI/HG/PG/EtOH, 0 = complete depigmentation)	mean pigment grade +/− SD ([1]; 1% in HG/PG/DMI/EtOH (5/40/15/40))	mean pigment grade +/− SD ([1]; 1% in HG/PG/DMI/EtOH + 2% IPM)	mean pigment grade +/− SD ([1]; 1% in PG/EtOH (3/7), 0 = complete depigmentation)
Oc1ccc(C2CCCCC2)c(O)c1 [4-cyclohexylresorcinol]	3 +/− 0*	2.8 +/− 0.6*	2.4 +/− 1.1*	3.0 +/− 0.8	3.0 +/− 0*	improved the depigmenting action; also recorded: improved the depigmentation efficacy	No irritation was apparent	signs of gradual repigmentation	–	–	–	–	–	–
Oc1ccc(C2CCCC2)c(O)c1 [4-cyclopentylresorcinol]	–	2.0 +/− 0.7*	1.4 +/− 0.9*	2.4 +/− 0.9*	–	improved the depigmentation efficacy	No irritation was apparent	signs of gradual repigmentation	not statistically different	statistically different from vehicle	2.8 +/− 0.4*	2.8 +/−0.6*	2.0 +/− 1.2*	3.3 +/− 0.7
